Data reported in US11845744B2, “Methods and compositions for modulating splicing” (Skyhawk Therapeutics, Inc., priority 2019, dated 2023).

How the values were obtained:
SMN = experiment: Quantitative splicing assay (SMN) in SMA patient fibroblasts (GM03813), qPCR of SMN FL and SMN Δ7; assay type: cell-based; conditions: Homo sapiens, Fibroblast, 24 h, SMN FL mRNA by qPCR
Method: Spinal muscular atrophy (SMA) patient fibroblasts (GM03813, Coriell) were plated in 96-well plates at 50,000 cells/well. Immediately after plating, cells were dosed with compounds for 24 h at concentrations ranging from 2.5 μM to 0.6 nM (0.1% DMSO). Treated cells were lysed and cDNA synthesized using the Fast Advanced Cells-to-Ct kit (ThermoFisher A35378) according to the manufacturer's instructions. 2 μL of each cDNA were used in qPCR reactions. The qPCR reactions were prepared in 384-well plates in 10 μL volume, using TaqMan™ Fast Advanced Master Mix (ThermoFisher; 4444965) with primers and probes shown in the table below. Reactions were run in a Quant Studio 6 qPCR instrument with default settings.

SMN protein = SMN protein assay (Mesoscale Discovery) in SMA patient fibroblasts (GM03813); assay type: cell-based, human; conditions: 48 hours, MSD assay, read-out: SMN EC50 (SMN Protein Potency)
Method: Compounds were tested on spinal muscular atrophy (SMA) patient fibroblasts (GM03813, Coriell) at doses ranging from 2.5 μM to 0.6 nM. 7000 cells/well were seeded in 96-well plates. Compounds were incubated for 48 hours and the cells were lysed with 100 μL of lysis buffer. 20 μL of lysate was used for SMN protein measurement by Mesoscale Discovery (MSD) assay developed by PharmOptima (Michigan). A standard curve prepared with SMN protein ranging from 1 μg/ml to 19.5 pg/ml was used in each MSD plate to calculate the absolute SMN protein amount in each sample.

[1] = system: MDR1-MDCK cell monolayers; experiment: MDCK-MDR1 permeability assay for blood-brain-barrier penetration potential (Papp, efflux ratio); assay type: in vitro ADME; conditions: 5 μM; for MDCK-MDR1: % Recov A-B: apical to basolateral; for MDCK-MDR1: % Recov A-B / MDCK-MDR1: % Recov B-A: 120 minutes, pH 7.4; for MDCK-MDR1: % Recov B-A: basolateral to apical
Method: (§1) The dosing solution concentration was 5 μM of test article in the assay buffer. […] Each determination was performed in duplicate. […] All samples were assayed by LC-MS/MS using electrospray ionization. Analytical conditions are outlined below.
(§2) The apparent permeability (Papp) and percent recovery were calculated as follows: […]

MDR1 = experiment: as above; assay type: in vitro ADME; conditions: dog; for Papp A→B at 120 min, 5 μM: MDCK-MDR1, apical to basolateral; for Papp A→B at 120 min, 5 μM / Papp B→A at 120 min, 5 μM: pH 7.4; for Papp B→A at 120 min, 5 μM: MDCK-MDR1, basolateral to apical; for efflux ratio at 120 min, 5 μM: MDCK-MDR1, pH 7.4, Efflux ratio = Papp (B-to-A)/Papp (A-to-B)
Method: as §1, §2

SMILES | EC50 (SMN) [nM] | EC50 (SMN protein) [nM] | MDCK-MDR1: % Recov A-B [1] [%] | MDCK-MDR1: % Recov B-A [1] [%] | Papp A→B at 120 min, 5 μM (MDR1) [×10⁻⁶ cm/s] | Papp B→A at 120 min, 5 μM (MDR1) [×10⁻⁶ cm/s] | efflux ratio at 120 min, 5 μM (MDR1) | MDCK-MDR1: Efflux ([1]; Efflux ratio = Papp (B-to-A)/Papp (A-to-B))
CN(c1cnc(-c2ccc(-c3cn[nH]c3)cc2O)nn1)[C@H]1C[C@@H]2CC[C@@H](N2)[C@H]1F (single isomer, unassigned) [Compound 2B] | 0.01 to 15 | 0.01 to 15 | 93 | 96 | 2.26 | 53.4 | 24 | –
CN(c1cnc(-c2ccc(-c3cnn(C)c3)cc2O)nn1)[C@H]1C[C@@H]2CC[C@@H](N2)[C@H]1F (single isomer, unassigned) [Compound 3B] | 0.01 to 15 | 0.01 to 15 | 62 | 76 | 4.3 | 37.8 | 9 | –
Cn1cc(-c2ccc(-c3ncc(O[C@H]4C[C@@H]5CCC[C@@H](N5)[C@H]4F)nn3)c(O)c2)cn1 (single isomer, unassigned) [Compound 5B] | – | 100 to 500 | 83 | 90 | 10.2 | 43.7 | 4 | –
CN(C)C(=O)c1cc2cc(O)c(-c3ncc(N(C)[C@H]4C[C@@H]5CC[C@@H](N5)[C@H]4F)nn3)cc2o1 (single isomer, unassigned) [Compound 4B] | – | – | 91 | 101 | 3.05 | 50 | 16 | –
CN(C)C(=O)c1cc2cc(O)c(-c3ncc(N(C)[C@@H]4C[C@H]5CC[C@H](N5)[C@@H]4F)nn3)cc2o1 (single isomer, unassigned) [Compound 4A] | – | – | 89 | 96 | – | – | – | 26
Cn1cc(-c2ccc(-c3ncc(O[C@@H]4C[C@H]5CCC[C@H](N5)[C@@H]4F)nn3)c(O)c2)cn1 (single isomer, unassigned) [Compound 5A] | – | 500 to 10000 | 69 | 79 | 9 | 30.9 | 3 | –
CN(c1cnc(-c2ccc(-c3cnn(C)c3)cc2O)nn1)[C@@H]1C[C@H]2CC[C@H](N2)[C@@H]1F (single isomer, unassigned) [Compound 3A] | 0.01 to 15 | 15 to 50 | 67 | 72 | 5.37 | 37.3 | 7 | –
CN(c1cnc(-c2ccc(-c3ccn(C)c(=O)c3)cc2O)nn1)[C@@H]1C[C@H]2CC[C@H](N2)[C@@H]1F (single isomer, unassigned) [Compound 1A] | – | 500 to 10000 | 81 | 94 | 0.12 | 37.8 | 309 | –
CN(c1cnc(-c2ccc(-c3cn[nH]c3)cc2O)nn1)[C@@H]1C[C@H]2CC[C@H](N2)[C@@H]1F (single isomer, unassigned) [Compound 2A] | – | 500 to 10000 | 78 | 74 | 2.05 | 39.8 | 19 | –
CN(c1cnc(-c2ccc(-c3ccn(C)c(=O)c3)cc2O)nn1)[C@H]1C[C@@H]2CC[C@@H](N2)[C@H]1F (single isomer, unassigned) [Compound 1B] | – | 500 to 10000 | 95 | 84 | 0.3 | 46.4 | 152 | –
